From patent publication US4060606A (Leo Pharmaceutical Products Ltd. A/S, priority 1976, dated 1977)
In brackets after ≈: the same amount, converted by molar mass.

How the values were obtained:
Test in all cases: In vitro antibacterial activity, concentrations required for 50% inhibition
Format in all cases: cell-based
[1] = system: Bacteroides fragilis Leo JA2; settings: LEOJA2
Excerpt: (§1) Now, however, it has been found, that the compounds of the present invention both in vitro and in vivo show interesting antimicrobial and pharmacokinetic properties. Thereby the compounds of the invention can be used in the treatment of bacterial infections in humans and animals.

Strep. pyogenes Leo EC = settings: Streptococcus pyogenes
Excerpt: as §1

Strep. species Leo EG2 = system: Strep. species Leo EG2
Excerpt: as §1

[2] = system: Staph. aureus Leo CC 178B; settings: Staphylococcus aureus, LEOCC178B
Excerpt: as §1

[3] = system: Bacillus subtilis Leo KA3; settings: LEOKA3
Excerpt: as §1

Question: Which results are given for CC(C)=CCC/C(C(=O)O)=C1/[C@@H](SC(C)C)C[C@@]2(C)[C@H]1C[C@@H](O)[C@H]1[C@@]3(C)CC[C@@H](O)[C@@H](C)[C@@H]3CC[C@@]12C [Example 1, 16-Deacetoxy-16β-isopropylthiofusidic acid]?
Answer: IC50 [1]: 5 µg/mL (≈ 9.38 µM); IC50 (Strep. pyogenes Leo EC): 0.2 µg/mL (≈ 0.375 µM); IC50 (Strep. species Leo EG2): 1 µg/mL (≈ 1.88 µM); IC50 [2]: 0.032 µg/mL (≈ 0.0601 µM); IC50 [3]: 0.02 µg/mL (≈ 0.0375 µM)

Question: With CC(C)CCC/C(C(=O)O)=C1/[C@@H](SC(C)C)C[C@@]2(C)[C@H]1C[C@@H](O)[C@H]1[C@@]3(C)CC[C@@H](O)[C@@H](C)[C@@H]3CC[C@@]12C [Example 11, 16-Deacetoxy-16β-isopropylthio-24,25-dihydrofusidic acid] as the compound, how does the IC50 [1] read?
Answer: Its IC50 is 4 µg/mL (≈ 7.48 µM).

Question: What about the IC50 (Strep. pyogenes Leo EC) of the same compound?
Answer: The IC50 was 0.04 µg/mL (≈ 0.0748 µM).

Question: And the IC50 (Strep. species Leo EG2)?
Answer: Its IC50 is 0.1 µg/mL (≈ 0.187 µM).

Question: What about the IC50 [2] of the same compound?
Answer: Its IC50 is 0.016 µg/mL (≈ 0.0299 µM).

Question: And the IC50 [3]?
Answer: The IC50 was 0.008 µg/mL (≈ 0.015 µM).

Question: CC(C)=CCC/C(C(=O)O)=C1/[C@@H](SC(C)C)C[C@@]2(C)[C@H]1CC(=O)[C@H]1[C@@]3(C)CC[C@@H](O)[C@@H](C)[C@@H]3CC[C@@]12C [Example 32, 11-Keto-16-deacetoxy-16β-isopropylthiofusidic acid] was tested. Which IC50 [1] did it give?
Answer: Its IC50 is 3.2 µg/mL (≈ 6.03 µM).

Question: And the IC50 (Strep. pyogenes Leo EC)?
Answer: The IC50 was 0.2 µg/mL (≈ 0.377 µM).

Question: What about the IC50 (Strep. species Leo EG2) of the same compound?
Answer: Its IC50 is 0.63 µg/mL (≈ 1.19 µM).

Question: And the IC50 [2]?
Answer: Its IC50 is 0.02 µg/mL (≈ 0.0377 µM).

Question: What about the IC50 [3] of the same compound?
Answer: The IC50 was 0.02 µg/mL (≈ 0.0377 µM).

Question: How did the IC50 [1] turn out when CC(C)CCC/C(C(=O)O)=C1/[C@@H](SC(C)C)C[C@@]2(C)[C@H]1CC(=O)[C@H]1[C@@]3(C)CC[C@@H](O)[C@@H](C)[C@@H]3CC[C@@]12C [Example 33, 11-Keto-16-deacetoxy-16β-isopropylthio-24,25-dihydrofusidic acid] was run?
Answer: The IC50 was 2 µg/mL (≈ 3.75 µM).

Question: And the IC50 (Strep. pyogenes Leo EC)?
Answer: Its IC50 is 0.32 µg/mL (≈ 0.601 µM).

Question: And the IC50 (Strep. species Leo EG2)?
Answer: Its IC50 is 0.79 µg/mL (≈ 1.48 µM).

Question: And the IC50 [2]?
Answer: The IC50 was 0.04 µg/mL (≈ 0.0751 µM).

Question: What about the IC50 [3] of the same compound?
Answer: Its IC50 is 0.05 µg/mL (≈ 0.0938 µM).

Question: Which IC50 [1] does the source give for CC(C)=CCC/C(C(=O)O)=C1/[C@@H](SC(C)C)C[C@@]2(C)[C@H]1C[C@@H](O)[C@H]1[C@@]3(C)CCC(=O)[C@@H](C)[C@@H]3CC[C@@]12C [Example 34, 3-Keto-16-deacetoxy-16β-isopropylthiofusidic acid] here?
Answer: Its IC50 is 5 µg/mL (≈ 9.42 µM).

Question: What about the IC50 (Strep. pyogenes Leo EC) of the same compound?
Answer: Its IC50 is 0.4 µg/mL (≈ 0.754 µM).

Question: What about the IC50 (Strep. species Leo EG2) of the same compound?
Answer: The IC50 was 1 µg/mL (≈ 1.88 µM).

Question: What about the IC50 [2] of the same compound?
Answer: Its IC50 is 0.04 µg/mL (≈ 0.0754 µM).

Question: What about the IC50 [3] of the same compound?
Answer: Its IC50 is 0.05 µg/mL (≈ 0.0942 µM).

Question: What does the source list for CC(C)=CCC/C(C(=O)O)=C1/[C@@H]([S+]([O-])C(C)C)C[C@@]2(C)[C@H]1C[C@@H](O)[C@H]1[C@@]3(C)CC[C@@H](O)[C@@H](C)[C@@H]3CC[C@@]12C (stereo partly drawn) [Example 35, 16-deacetoxy-16β-isopropylsulfinylfusidic acid]?
Answer: IC50 [1]: 1.3 µg/mL (≈ 2.37 µM); IC50 (Strep. pyogenes Leo EC): 0.2 µg/mL (≈ 0.364 µM); IC50 (Strep. species Leo EG2): 0.32 µg/mL (≈ 0.583 µM); IC50 [2]: 0.05 µg/mL (≈ 0.0911 µM); IC50 [3]: 0.4 µg/mL (≈ 0.729 µM)

Question: What does the source list for CC(C)CCC/C(C(=O)O)=C1/[C@@H]([S+]([O-])C(C)C)C[C@@]2(C)[C@H]1C[C@@H](O)[C@H]1[C@@]3(C)CC[C@@H](O)[C@@H](C)[C@@H]3CC[C@@]12C (stereo partly drawn) [Example 42, 16-Deacetoxy-16β-isopropylsulfinyl-24,25-dihydrofusidic acid]?
Answer: IC50 [1]: 1.6 µg/mL (≈ 2.9 µM); IC50 (Strep. pyogenes Leo EC): 0.16 µg/mL (≈ 0.29 µM); IC50 (Strep. species Leo EG2): 0.5 µg/mL (≈ 0.908 µM); IC50 [2]: 0.04 µg/mL (≈ 0.0726 µM); IC50 [3]: 0.16 µg/mL (≈ 0.29 µM)

Question: What does the source list for CCO[C@H]1C[C@@]2(C)[C@@H](C[C@@H](O)[C@H]3[C@@]4(C)CC[C@@H](O)[C@@H](C)[C@@H]4CC[C@@]32C)/C1=C(\CCC=C(C)C)C(=O)O [Example 46, 16-Deacetoxy-16β-ethoxyfusidic acid]?
Answer: IC50 [1]: 1 µg/mL (≈ 1.99 µM); IC50 (Strep. pyogenes Leo EC): 1 µg/mL (≈ 1.99 µM); IC50 (Strep. species Leo EG2): 5 µg/mL (≈ 9.95 µM); IC50 [2]: 0.025 µg/mL (≈ 0.0497 µM); IC50 [3]: 0.05 µg/mL (≈ 0.0995 µM)

Question: With CC(C)=CCC/C(C(=O)O)=C1/[C@@H](OCC(F)(F)F)C[C@@]2(C)[C@H]1C[C@@H](O)[C@H]1[C@@]3(C)CC[C@@H](O)[C@@H](C)[C@@H]3CC[C@@]12C [Example 48, 16-deacetoxy-16β-(2',2',2'-trifluoroethoxy)fusidic acid] as the compound, how does the IC50 [1] read?
Answer: Its IC50 is 32 µg/mL (≈ 57.5 µM).

Question: And the IC50 (Strep. pyogenes Leo EC)?
Answer: The IC50 was 0.5 µg/mL (≈ 0.898 µM).

Question: And the IC50 (Strep. species Leo EG2)?
Answer: Its IC50 is 1 µg/mL (≈ 1.8 µM).

Question: And the IC50 [2]?
Answer: The IC50 was 0.016 µg/mL (≈ 0.0287 µM).

Question: What about the IC50 [3] of the same compound?
Answer: Its IC50 is 0.02 µg/mL (≈ 0.0359 µM).

Question: How did the IC50 [1] turn out when CC(C)=CCC/C(C(=O)O)=C1/[C@@H](OCCF)C[C@@]2(C)[C@H]1C[C@@H](O)[C@H]1[C@@]3(C)CC[C@@H](O)[C@@H](C)[C@@H]3CC[C@@]12C [Example 50, 16-Deacetoxy-16β-(2'-fluoroethoxy)fusidic acid] was run?
Answer: The IC50 was 0.32 µg/mL (≈ 0.615 µM).

Question: What about the IC50 (Strep. pyogenes Leo EC) of the same compound?
Answer: The IC50 was 0.63 µg/mL (≈ 1.21 µM).

Question: And the IC50 (Strep. species Leo EG2)?
Answer: The IC50 was 2.5 µg/mL (≈ 4.8 µM).

Question: What about the IC50 [2] of the same compound?
Answer: Its IC50 is 0.02 µg/mL (≈ 0.0384 µM).

Question: And the IC50 [3]?
Answer: The IC50 was 0.05 µg/mL (≈ 0.096 µM).

Question: Which results are given for CC(C)=CCC/C(C(=O)O)=C1/[C@@H](OC(CF)CF)C[C@@]2(C)[C@H]1C[C@@H](O)[C@H]1[C@@]3(C)CC[C@@H](O)[C@@H](C)[C@@H]3CC[C@@]12C [Example 52]?
Answer: IC50 [1]: 0.63 µg/mL (≈ 1.14 µM); IC50 (Strep. pyogenes Leo EC): 0.5 µg/mL (≈ 0.905 µM); IC50 (Strep. species Leo EG2): 3.2 µg/mL (≈ 5.79 µM); IC50 [2]: 0.025 µg/mL (≈ 0.0452 µM); IC50 [3]: 0.04 µg/mL (≈ 0.0724 µM)

Question: CCO[C@H]1C[C@@]2(C)[C@@H](CC(=O)[C@H]3[C@@]4(C)CC[C@@H](O)[C@@H](C)[C@@H]4CC[C@@]32C)/C1=C(\CCC=C(C)C)C(=O)O [Example 75, 11-Keto-16-deacetoxy-16β-ethoxyfusidic acid] was tested. Which IC50 [1] did it give?
Answer: The IC50 was 13 µg/mL (≈ 26 µM).

Question: What about the IC50 (Strep. pyogenes Leo EC) of the same compound?
Answer: The IC50 was 1 µg/mL (≈ 2 µM).

Question: And the IC50 (Strep. species Leo EG2)?
Answer: Its IC50 is 3.2 µg/mL (≈ 6.39 µM).

Question: What about the IC50 [2] of the same compound?
Answer: Its IC50 is 0.02 µg/mL (≈ 0.0399 µM).

Question: What about the IC50 [3] of the same compound?
Answer: The IC50 was 0.05 µg/mL (≈ 0.0999 µM).

Question: What does the source list for CC(C)=CCC/C(C(=O)O)=C1/[C@@H](OCCF)C[C@@]2(C)[C@H]1CC(=O)[C@H]1[C@@]3(C)CC[C@@H](O)[C@@H](C)[C@@H]3CC[C@@]12C [Example 76, 11-Keto-16-deacetoxy-16β-(2'-fluoroethoxy)fusidic acid]?
Answer: IC50 [1]: 2 µg/mL (≈ 3.86 µM); IC50 (Strep. pyogenes Leo EC): 1.6 µg/mL (≈ 3.08 µM); IC50 (Strep. species Leo EG2): 4 µg/mL (≈ 7.71 µM); IC50 [2]: 0.025 µg/mL (≈ 0.0482 µM); IC50 [3]: 0.032 µg/mL (≈ 0.0617 µM)

Question: Which results are given for CC(=O)O[C@H]1C[C@@]2(C)[C@@H](C[C@@H](O)[C@H]3[C@@]4(C)CC[C@@H](O)[C@@H](C)[C@@H]4CC[C@@]32C)/C1=C(\CCC=C(C)C)C(=O)O [Fusidic acid, reference compound]?
Answer: IC50 [1]: 1.6 µg/mL (≈ 3.1 µM); IC50 (Strep. pyogenes Leo EC): 0.79 µg/mL (≈ 1.53 µM); IC50 (Strep. species Leo EG2): 1.6 µg/mL (≈ 3.1 µM); IC50 [2]: 0.032 µg/mL (≈ 0.0619 µM); IC50 [3]: 0.2 µg/mL (≈ 0.387 µM)
